Measurements taken from patent US9617221B2, “Kinase modulators for the treatment of cancer” (Synovo GmbH, priority 2010, dated 2017).

Experiments:
Assay type in all cases: cell-based, mice
IL-10 [1] = assay: IL-10 production by LPS-stimulated murine peritoneal macrophage (ELISA); details: for IL-10 by ELISA, % of solvent treated control: murine peritoneal macrophage; for IL-10 (LPS, Macrophages), amount of cytokine: 10 μM, 72 h
Protocol: (§1) Peritoneal macrophage or splenocytes (lymphocytes and macrophage) were harvested from donor mice using standard techniques. Cells were placed in culture and stimulated with either LPS (10 μg/mL) or concanavalin A 5 μg/mL (Sigma Chemical Co., St Louis, Mo.) in RPMI-1640 medium supplemented with antibiotics, […] 2-mercaptoethanol, 10 mm HEPES buffer and 10% fetal calf serum (FCS) (see Holan et al., 1985) to stimulate macrophage and T-cells respectively. Compounds were added from DMSO stock solutions to a final concentration of 50 μM or less with DMSO not exceeding 1% of total volume. After 72 h, cell supernatant was recovered and the cytokine levels were estimated by ELISA. The effect of compounds on cytokine production was recorded as follows: […]

NO = NO production by LPS-stimulated macrophages; details: 10 μM, 72 h
IL-6 = IL-6 production by LPS-stimulated macrophages; details: 10 μM, 72 h
Protocol: as §1

IL-2 = IL-2 production by ConA-stimulated T cells; details: 10 μM, 72 h
Protocol: as §1

IFN-g = IFN-g production by ConA-stimulated T cells; details: 10 μM, 72 h
Protocol: as §1

IL-10 [2] = assay: IL-10 production by ConA-stimulated T cells; details: 10 μM, 72 h
Protocol: as §1

T cells = assay: Proliferation of Con A-stimulated T cells; details: 10 μM
Protocol: as §1

B cells = assay: Proliferation of LPS-stimulated B cells; details: 10 μM

SMILES	IL-10 by ELISA, % of solvent treated control (IL-10 [1]; 1.25 μM inhibitor in medium)	IL-10 by ELISA, % of solvent treated control (IL-10 [1]; 5 μM inhibitor in medium)	IL-10 by ELISA, % of solvent treated control (IL-10 [1]; 20 μM inhibitor in medium)	NO (LPS, Macrophages), % of control treated with solvent alone (NO)	IL-6 (LPS, Macrophages), amount of cytokine (IL-6)	IL-10 by ELISA, % of solvent treated control (IL-10 [1]; 2 μM inhibitor in medium)	IL-10 by ELISA, % of solvent treated control (IL-10 [1]; 10 μM inhibitor in medium)	IL-10 (LPS, Macrophages), amount of cytokine (IL-10 [1])	IL-10 by ELISA, % of solvent treated control (IL-10 [1]; 50 μM inhibitor in medium)	IL-2 (ConA, T cells), amount of cytokine (IL-2)	IFN-g (ConA, T cells), amount of cytokine (IFN-g)	IL-10 (ConA, T cells), amount of cytokine (IL-10 [2])	Proliferation (Con A, T cells) (T cells)	Proliferation (LPS, B cells) (B cells)
CCOC(=O)CCCN(C)C1CC(C)OC(OC2C(C)C(OC3CC(C)(OC)C(O)C(C)O3)C(C)C(=O)OC(CC)C(C)(O)C(O)C(C)N(C)CC(C)CC2(C)O)C1O (centres unmarked) [Compound 27, 4-({2-[2-Ethyl-3,4,10-trihydroxy-13-(5-hydroxy-4-methoxy-4,6-dimethyl-tetrahydro-pyran-2-yloxy)-3,5,6,8,10,12,14-heptamethyl-15-oxo-1-oxa-6-aza-cyclopentadec-11-yloxy]-3-hydroxy-6-methyl-tetrahydro-pyran-4-yl}-methyl-amino)-butyric acid ethyl ester]	132 % of solvent treated control	106 % of solvent treated control	17 % of solvent treated control	–	–	–	–	–	–	–	–	–	–	–
CCC1OC(=O)C(C)C(OC2CC(C)(OC)C(O)C(C)O2)C(C)C(OC2OC(C)CC(N(C)CCCC(=O)OCC3CO3)C2O)C(C)(O)CC(C)CN(C)C(C)C(O)C1(C)O (centres unmarked) [Compound 29]	110 % of solvent treated control	114 % of solvent treated control	106 % of solvent treated control	–	–	–	–	–	–	–	–	–	–	–
CCC1OC(=O)C(C)C(OC2CC(C)(OC)C(O)C(C)O2)C(C)C(OC2OC(C)CC(N(C)CCCCCC(=O)OCCO)C2O)C(C)(O)CC(C)CN(C)C(C)C(O)C1(C)O (centres unmarked) [Compound 36]	–	–	–	100 % of control treated with solvent alone	91 % of control treated with solvent alone	88 % of solvent treated control	116 % of solvent treated control	116 % of control treated with solvent alone	0 % of solvent treated control	96 % of control treated with solvent alone	99 % of control treated with solvent alone	79 % of control treated with solvent alone	199 % of control treated with solvent alone	3 % of control treated with solvent alone
CC[C@H]1OC(=O)[C@H](C)[C@@H](O[C@H]2C[C@@](C)(OC)[C@@H](O)[C@H](C)O2)[C@H](C)[C@@H](O[C@@H]2O[C@H](C)C[C@H](N(C)CCCC(=O)OCC(O)CSc3nc(-c4ccc(F)cc4)c(-c4ccnc(NC(C)C(C)C)c4)[nH]3)[C@H]2O)[C@](C)(O)C[C@@H](C)CN(C)[C@H](C)[C@@H](O)[C@]1(C)O (some centres unmarked) [Compound 43a]	–	–	–	1 % of control treated with solvent alone	15 % of control treated with solvent alone	16 % of solvent treated control	2 % of solvent treated control	2 % of control treated with solvent alone	5 % of solvent treated control	0 % of control treated with solvent alone	3 % of control treated with solvent alone	0 % of control treated with solvent alone	0 % of control treated with solvent alone	2 % of control treated with solvent alone
CC[C@H]1OC(=O)[C@H](C)[C@@H](O[C@H]2C[C@@](C)(OC)[C@@H](O)[C@H](C)O2)[C@H](C)[C@@H](O[C@@H]2O[C@H](C)C[C@H](N(C)CCCC(=O)OCC(O)CSc3nc(-c4ccc(F)cc4)c(-c4ccnc(NC5CCOCC5)c4)[nH]3)[C@H]2O)[C@](C)(O)C[C@@H](C)CN(C)[C@H](C)[C@@H](O)[C@]1(C)O (some centres unmarked) [Compound 43b]	–	–	–	31 % of control treated with solvent alone	94 % of control treated with solvent alone	27 % of solvent treated control	−4 % of solvent treated control	−4 % of control treated with solvent alone	−4 % of solvent treated control	0 % of control treated with solvent alone	0 % of control treated with solvent alone	−2 % of control treated with solvent alone	−2 % of control treated with solvent alone	−3 % of control treated with solvent alone
CC[C@H]1OC(=O)[C@H](C)[C@@H](O)[C@H](C)[C@@H](O[C@@H]2O[C@H](C)C[C@H](N(C)CCCC(=O)OCC(O)CSc3nc(-c4ccc(F)cc4)c(-c4ccnc(NC5CCOCC5)c4)[nH]3)[C@H]2O)[C@](C)(O)C[C@@H](C)CN(C)[C@H](C)[C@@H](O)[C@]1(C)O (some centres unmarked) [Compound 43c]	–	–	–	82 % of control treated with solvent alone	95 % of control treated with solvent alone	18 % of solvent treated control	7 % of solvent treated control	7 % of control treated with solvent alone	−4 % of solvent treated control	90 % of control treated with solvent alone	72 % of control treated with solvent alone	25 % of control treated with solvent alone	113 % of control treated with solvent alone	2 % of control treated with solvent alone
CCC(C)Nc1cc(-c2[nH]c(SCC(O)COC(=O)CCCN(C)[C@H]3C[C@@H](C)O[C@@H](O[C@@H]4[C@@H](C)[C@H](O[C@H]5C[C@@](C)(OC)[C@@H](O)[C@H](C)O5)[C@@H](C)C(=O)O[C@H](CC)[C@@](C)(O)[C@H](O)[C@@H](C)N(C)C[C@H](C)C[C@@]4(C)O)[C@@H]3O)nc2-c2ccc(F)cc2)ccn1 (some centres unmarked) [Compound 43d]	–	–	–	52 % of control treated with solvent alone	95 % of control treated with solvent alone	15 % of solvent treated control	−4 % of solvent treated control	−4 % of control treated with solvent alone	−4 % of solvent treated control	0 % of control treated with solvent alone	3 % of control treated with solvent alone	−2 % of control treated with solvent alone	−2 % of control treated with solvent alone	−3 % of control treated with solvent alone
CCC(C)Nc1cc(-c2[nH]c(SCC(O)COC(=O)CCCN(C)[C@H]3C[C@@H](C)O[C@@H](O[C@@H]4[C@@H](C)[C@H](O)[C@@H](C)C(=O)O[C@H](CC)[C@@](C)(O)[C@H](O)[C@@H](C)N(C)C[C@H](C)C[C@@]4(C)O)[C@@H]3O)nc2-c2ccc(F)cc2)ccn1 (some centres unmarked) [Compound 43e]	–	–	–	1 % of control treated with solvent alone	29 % of control treated with solvent alone	−4 % of solvent treated control	−4 % of solvent treated control	−4 % of control treated with solvent alone	−4 % of solvent treated control	0 % of control treated with solvent alone	0 % of control treated with solvent alone	−2 % of control treated with solvent alone	−1 % of control treated with solvent alone	−3 % of control treated with solvent alone
CC[C@H]1OC(=O)[C@H](C)[C@@H](O[C@H]2C[C@@](C)(OC)[C@@H](O)[C@H](C)O2)[C@H](C)[C@@H](O[C@@H]2O[C@H](C)C[C@H](N(C)CCCC(=O)OCC(O)CSc3nc(-c4ccc(F)cc4)c(-c4ccnc(NC(C)C)c4)[nH]3)[C@H]2O)[C@](C)(O)C[C@@H](C)CN(C)[C@H](C)[C@@H](O)[C@]1(C)O (some centres unmarked) [Compound 43f]	–	–	–	2 % of control treated with solvent alone	30 % of control treated with solvent alone	−1 % of solvent treated control	−10 % of solvent treated control	−10 % of control treated with solvent alone	27 % of solvent treated control	-1 % of control treated with solvent alone	61 % of control treated with solvent alone	0 % of control treated with solvent alone	−8 % of control treated with solvent alone	−6 % of control treated with solvent alone
